Ki and inhibition data for five compounds are collected here from PMC6151589, “Identification of Optically Active Pyrimidine Derivatives as Selective 5-HT2C Modulators” (Molecules : A Journal of Synthetic Chemistry and Natural …, 2017).

Experiment [1] concerns the target T1, 5-HT2C (Homo sapiens, UniProt P28335).
T1 construct: gene HTR2C; human recombinant receptor; crude membrane fractions of transfected cells (CHO-K1; HEK293 or CHO)
T1 sequence (P28335 33-458): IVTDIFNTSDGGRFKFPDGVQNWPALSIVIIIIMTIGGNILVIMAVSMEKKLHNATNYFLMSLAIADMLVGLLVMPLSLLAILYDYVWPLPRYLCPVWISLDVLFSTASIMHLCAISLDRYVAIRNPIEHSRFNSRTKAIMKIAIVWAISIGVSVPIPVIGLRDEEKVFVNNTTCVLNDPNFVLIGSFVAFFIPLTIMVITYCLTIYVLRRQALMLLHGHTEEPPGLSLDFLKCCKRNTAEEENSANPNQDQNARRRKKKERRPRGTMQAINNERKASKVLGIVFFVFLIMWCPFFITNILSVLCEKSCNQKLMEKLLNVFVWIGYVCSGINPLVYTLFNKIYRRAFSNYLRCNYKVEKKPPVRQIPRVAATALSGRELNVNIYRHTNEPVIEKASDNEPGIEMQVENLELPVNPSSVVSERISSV
Kind of experiment: radioligand displacement, membranes. The class given is binding. The source says:
radioligand displacement, membranes on 5-HT2C
On the technique in general: In a radioligand displacement assay an active substance lowers the binding of a labelled ligand.

A further experiment concerns the target T2, 5-HT2B (Homo sapiens, UniProt P41595).
T2 construct: gene HTR2B; human recombinant receptor; crude membrane fractions of transfected HEK293 or CHO cells
Kind of experiment: radioligand displacement, membranes. It is filed as binding. The source says: radioligand displacement, membranes on 5-HT2B

For the next experiment, the target named is T3, 5-HT1E (Homo sapiens, UniProt P28566).
T3 construct: gene HTR1E; human recombinant receptor, crude membranes of HEK293 or CHO cells
Put plainly: biochemical. More on the design: species or system HEK293 or CHO; competitive radioligand binding on crude membranes, filtration and scintillation counting. The settings on record: for Ki: read-out: Ki (nM), 1E. Here is the method: Eleven dilutions (5 × assay concentration) of the test and reference compounds (Table S1) were prepared in standard binding buffer (50 mM tris(hydroxymethyl)-aminomethane-HCl (Tris-HCl), 10 mM MgCl2, 1 mM ethylenediaminetetraacetate (EDTA), pH 7.4) by serial dilution: 0.05 nM, 0.5 nM, 1.5 nM, 5 nM, 15 nM, 50 nM, 150 nM, 500 nM, 1.5 μM, 5 μM, and 50 μM. The radioligand (Table S3) was diluted to five times the assay concentration in standard binding buffer. Aliquots ([…]) of the radioligand were dispensed into the wells of a 96-well plate containing […] of standard binding buffer. Triplicate aliquots ([…]) of the test and reference compound dilutions were then added. Finally, crude membrane fractions ([…]) of cells (HEK293 or CHO) expressing human recombinant receptors were dispensed into each well. A total of […] of the reaction mixtures was incubated at room temperature and shielded from light for 1.5 h, and was then harvested by rapid filtration onto Whatman GF/B glass fiber filters presoaked with 0.3% polyethyleneimine, by using a 96-well Brandel harvester (Gaithersburg, MD, USA). Four rapid washes were performed with chilled standard binding buffer (500 mL) to decrease nonspecific binding. Filters were placed in 6 mL scintillation tubes and allowed to dry overnight. The next day, 4-mL of EcoScint scintillation cocktail (National Diagnostics) was added to each tube. The tubes were capped, labeled, and counted by […] scintillation counting. The filter mats were dried, and the scintillant was melted onto the filters, then the radioactivity retained on the filters was counted in a Microbeta scintillation counter. The IC50 values were obtained by using the Prism 4.0 program (GraphPad Software, La Jolla, CA, USA) and were converted into Ki values. Each compound was tested at least in triplicate. With each enantiomer (R)- or (S)-5d and 5e in hand, the optically active pyrimidine derivatives 4d–4e were synthesized following the same reaction sequences (Scheme 3). Finally, compounds 4d and 4e were assessed for their binding affinity to 5-HT2 receptor subtypes by radioligand binding assays. […] A further evaluation of these compounds for other 5-HT receptor subtypes was also performed and is provided in the supplementary data (Table S2). […] Considering the potencies and selectivities of 4, we can conclude that (R,R)-4e would be a viable candidate for a selective 5-HT2C modulator.

Experiment [2] concerns the target T1, 5-HT2C. Put plainly: [3H]mesulergine displacement, membranes. The note with it: pH […] MgCl2, room temperature; reference compound, may stem from the authors' earlier study (ref […]). The class given is binding. The source says:
[3H]mesulergine displacement, membranes on 5-HT2C

Read-outs that look alike come from different tables or passages of the source.

T3 sequence (P28566 whole entry): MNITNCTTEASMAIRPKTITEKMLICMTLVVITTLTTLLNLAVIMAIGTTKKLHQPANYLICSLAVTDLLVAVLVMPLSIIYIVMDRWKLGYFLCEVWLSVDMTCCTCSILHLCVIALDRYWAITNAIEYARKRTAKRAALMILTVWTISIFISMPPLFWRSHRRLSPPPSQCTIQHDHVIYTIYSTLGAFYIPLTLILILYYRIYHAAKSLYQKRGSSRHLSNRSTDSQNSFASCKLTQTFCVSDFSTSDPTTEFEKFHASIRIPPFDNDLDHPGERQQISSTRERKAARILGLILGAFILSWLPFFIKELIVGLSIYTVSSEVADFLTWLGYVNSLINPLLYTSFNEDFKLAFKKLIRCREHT
T2 sequence (P41595 whole entry): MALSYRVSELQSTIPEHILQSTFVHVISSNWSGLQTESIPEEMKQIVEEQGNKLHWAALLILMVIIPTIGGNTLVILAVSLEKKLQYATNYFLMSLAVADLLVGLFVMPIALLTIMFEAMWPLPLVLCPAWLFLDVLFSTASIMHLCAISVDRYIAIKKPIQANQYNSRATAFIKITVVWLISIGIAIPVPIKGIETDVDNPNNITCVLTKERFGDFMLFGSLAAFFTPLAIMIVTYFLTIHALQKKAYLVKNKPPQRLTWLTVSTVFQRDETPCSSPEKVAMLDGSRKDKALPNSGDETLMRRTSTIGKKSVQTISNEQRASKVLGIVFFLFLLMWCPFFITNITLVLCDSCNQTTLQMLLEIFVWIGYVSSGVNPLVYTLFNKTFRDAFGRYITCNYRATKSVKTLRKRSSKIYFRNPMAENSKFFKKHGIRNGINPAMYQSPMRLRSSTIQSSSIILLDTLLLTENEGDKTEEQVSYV

For orientation: Ki means the equilibrium dissociation constant of an inhibitor or competing ligand from its target. For orientation: inhibition means the change of the read-out against control, counted positive when it falls. The low end stands for a weak effect, the high end for a strong effect. On to `C[C@H](Oc1nc(N2CCNC[C@H]2C)ncc1F)c1cccc(F)c1` [(S,R)-4d, 5-Fluoro-4-((S)-1-(3-fluorophenyl)ethoxy)-2-((R)-2-methylpiperazin-1-yl)pyrimidine], for which the figures for the Ki on 5-HT2C [1] and at 5-HT2B were 14 nM and 67 nM, respectively. Testing at 10 µM at 5-HT1E gave an inhibition of 29.5%.

On to `C[C@@H]1CNCCN1c1ncc(F)c(O[C@H](C)c2ccc(F)cc2)n1` [(R,R)-4e, 5-Fluoro-4-((R)-1-(4-fluorophenyl)ethoxy)-2-((R)-2-methylpiperazin-1-yl)pyrimidine], for which the figures for the Ki at 5-HT2C [1] and on 5-HT2B were 4 nM and 19 nM, respectively. Besides, the inhibition at 10 µM on 5-HT1E is 42.7%.

In the case of `C[C@H](Cc1cccc(F)c1)Oc1nc(N2CCNC[C@H]2C)ncc1F` [compound 3, pyrimidine analogue 3], the inhibition constant Ki on 5-HT2C [2] worked out at 0.7 nM; at 5-HT2B (pH […] MgCl2, room temperature, reference compound, may stem from the authors' earlier study (ref […])) it was 7.9 nM; at 5-HT1E it was 1160 nM. This compound also had an inhibition at 10 µM on 5-HT1E of 65.6%.

For `C[C@H](Oc1nc(N2CCNC[C@H]2C)ncc1F)c1ccc(F)cc1` [(S,R)-4e, 5-Fluoro-4-((S)-1-(4-fluorophenyl)ethoxy)-2-((R)-2-methylpiperazin-1-yl)pyrimidine], the inhibition constant (Ki) at 5-HT2C [1] is 23 nM; on 5-HT2B, 128 nM.

Consider `C[C@@H]1CNCCN1c1ncc(F)c(O[C@H](C)c2cccc(F)c2)n1` [(R,R)-4d, 5-Fluoro-4-((R)-1-(3-fluorophenyl)ethoxy)-2-((R)-2-methylpiperazin-1-yl)pyrimidine], for which the Ki on 5-HT2C [1] was determined as 1.2 nM; at 5-HT2B, 2.6 nM; on 5-HT1E it was 1160 nM. At 10 µM the inhibition at 5-HT1E was 67.5%.
